Data: ChEMBL document CHEMBL3870328, “Synthesis of novel Ral inhibitors: An in vitro and in vivo study” (Bioorg Med Chem Lett, 2016)

Columns and labels:
[1] = Cytotoxicity against human NCI-H2122 cells under anchorage-independent condition assessed as cell growth inhibition after 10 days by nitro blue tetrazolium-based microscopic analysis; assay type: functional; conditions: NCI-H2122, 240 h
[2] = Drug level in CD1 mouse liver microsomes treated with 6-amino-4-(2,5-dimethoxyphenyl)-3-(naphthalen-2-yl)-1,4-dihydropyrano[2,3-c]pyrazole-5-carbonitrile at 16.7 uM assessed as CYP450-mediated compound formation in presence of NADPH by LC-MS/MS analysis; assay type: ADME

For COc1ccc(C2C(C#N)=C(N)Oc3c2c(-c2ccccc2)nn3-c2ccccc2)cc1 (stereo not drawn), the IC50 [1] was 3.1 µM.
With N#CC1=C(N)Oc2[nH]nc(-c3ccc4ccccc4c3)c2C1c1cc(O)ccc1O (stereo not drawn) the Drug metabolism [2] was “Metabolite_Detected”.
In the case of COc1ccc(-c2nn(C)c3c2C(c2ccccc2)C(C#N)=C(N)O3)cc1OC (stereo not drawn), the IC50 [1] is reported as over 10 µM.
Cc1nn(C)c2c1C(c1cccc(Br)n1)C(C#N)=C(N)O2 (stereo not drawn) gave an IC50 [1] of 2.4 µM.
COc1ccc(C2C(C#N)=C(N)Oc3c2c(-c2ccccc2)nn3C)cc1F (stereo not drawn) showed an IC50 [1] of over 10 µM.
With N#CC1=C(N)Oc2c(c(-c3ccccc3)nn2-c2ccccc2)C1c1ccc(F)cc1 (stereo not drawn) the IC50 [1] was 4.1 µM.
Cn1nc(-c2ccccc2)c2c1OC(N)=C(C#N)C2c1cccnc1 (stereo not drawn) gave an IC50 [1] of over 10 µM.
Molecule N#CC1=C(N)Oc2c(c(-c3ccccc3)nn2-c2ccccc2)C1c1ccccc1 (stereo not drawn) has an IC50 [1] of 4.1 µM.
COc1ccc(C2C(C#N)=C(N)Oc3c2c(C)nn3-c2ccccc2)cc1 (stereo not drawn) showed an IC50 [1] of 4.1 µM.
In the case of COc1ccc(-c2nn(C)c3c2C(c2ccccc2)C(C#N)=C(N)O3)cc1 (stereo not drawn), the IC50 [1] is reported as over 10 µM.
In the case of Cc1nn(C)c2c1C(c1ccccc1)C(C#N)=C(N)O2 (stereo not drawn), the IC50 [1] is reported as 9.1 µM.
COc1ccc(C2C(C#N)=C(N)Oc3c2c(C)nn3C)cc1 (stereo not drawn) showed an IC50 [1] of 8.6 µM.
Work on COc1ccc(-c2nn(-c3ccccc3)c3c2C(c2ccc(F)cc2)C(C#N)=C(N)O3)cc1OC (stereo not drawn) yielded an IC50 [1] of 7.6 µM.
For COc1ccc(-c2nn(-c3ccccc3)c3c2C(c2ccccc2)C(C#N)=C(N)O3)cc1 (stereo not drawn), the IC50 [1] was 7.2 µM.
COc1ccc(-c2nn(-c3ccccc3)c3c2C(c2ccc(OC)cc2)C(C#N)=C(N)O3)cc1 (stereo not drawn) gave an IC50 [1] of 1.1 µM.
Molecule Cc1nn(C)c2c1C(c1ccc(OC(F)(F)F)cc1)C(C#N)=C(N)O2 (stereo not drawn) has an IC50 [1] of 2.9 µM.
In the case of Cn1nc(-c2ccccc2)c2c1OC(N)=C(C#N)C2c1ccc2c(c1)OCCO2 (stereo not drawn), the IC50 [1] is reported as 8.4 µM.
With Cn1nc(-c2ccccc2)c2c1OC(N)=C(C#N)C2c1ccccc1 (stereo not drawn) the IC50 [1] was over 10 µM.
COc1ccc(C2C(C#N)=C(N)Oc3c2c(C)nn3C)cc1F (stereo not drawn) gave an IC50 [1] of 5.8 µM.
In the case of Cc1nn(C)c2c1C(c1ccc(C#N)cc1)C(C#N)=C(N)O2 (stereo not drawn), the IC50 [1] is reported as 5.6 µM.
In the case of CC(C)c1ccc(C2C(C#N)=C(N)Oc3c2c(-c2ccccc2)nn3C)cc1 (stereo not drawn), the IC50 [1] is reported as 5.4 µM.
Molecule Cc1nn(C)c2c1C(c1ccc(-n3ccnc3)cc1)C(C#N)=C(N)O2 (stereo not drawn) has an IC50 [1] of 1.7 µM.
COc1ccc(-c2nn(-c3ccccc3)c3c2C(c2ccc(F)cc2)C(C#N)=C(N)O3)cc1 (stereo not drawn) gave an IC50 [1] of 6 µM.
